The record followed here is patent US12559492B2, “BRAF degraders” (C4 Therapeutics, Inc., priority 2020, dated 2026).

Counter-ions that a name gives are not always drawn.

For the experiment, the target named is BRAF^V600E protein (Homo sapiens, UniProt P15056, V600E). The experiment in a line: HiBiT cellular BRAF V600E degradation assay. The class given is cell-based. The following applies: 24 h incubation; for DC50: A375.10 cells (HiBiT tag knocked in at N-terminal of BRAF V600E), concentration at which 50% of total cellular BRAF V600E is degraded; for Emax / HiBit 24 h Emax: A375.10 cells, Emax = amount of residual protein remaining in the cell after compound treatment; for Emax: read-out: HiBit 24 h Emax. On the technique in general: With HiBiT, luminescence reflects the tagged protein that the partner subunit can reach.
Sequence of BRAF^V600E protein (P15056 whole entry V600E): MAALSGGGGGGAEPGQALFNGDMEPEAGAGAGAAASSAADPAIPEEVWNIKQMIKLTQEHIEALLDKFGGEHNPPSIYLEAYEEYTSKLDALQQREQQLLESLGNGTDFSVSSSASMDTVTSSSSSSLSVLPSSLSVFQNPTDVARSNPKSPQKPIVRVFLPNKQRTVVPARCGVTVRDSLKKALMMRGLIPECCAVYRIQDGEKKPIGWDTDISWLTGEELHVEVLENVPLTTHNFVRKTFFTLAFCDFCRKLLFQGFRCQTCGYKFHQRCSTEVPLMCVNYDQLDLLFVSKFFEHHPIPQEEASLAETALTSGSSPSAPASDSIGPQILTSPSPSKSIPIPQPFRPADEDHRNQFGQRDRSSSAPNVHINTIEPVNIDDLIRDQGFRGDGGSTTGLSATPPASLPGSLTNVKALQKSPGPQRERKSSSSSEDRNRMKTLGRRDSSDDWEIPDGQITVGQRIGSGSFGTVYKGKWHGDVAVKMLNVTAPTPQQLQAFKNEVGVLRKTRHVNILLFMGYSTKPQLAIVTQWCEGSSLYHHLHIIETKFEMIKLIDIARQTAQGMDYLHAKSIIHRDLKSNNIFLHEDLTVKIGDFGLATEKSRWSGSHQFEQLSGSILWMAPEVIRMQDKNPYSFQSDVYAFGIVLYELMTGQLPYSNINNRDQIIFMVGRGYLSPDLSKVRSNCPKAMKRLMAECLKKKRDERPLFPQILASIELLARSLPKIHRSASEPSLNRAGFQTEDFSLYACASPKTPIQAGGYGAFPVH

As for `O=C1CCC(Nc2ccc(CC(=O)N[C@H]3C[C@H](OC4CCN(c5ccc(-c6cnc7[nH]cc(C(=O)c8c(F)ccc(NS(=O)(=O)N9CCCC9)c8F)c7c6)cn5)CC4)C3)cc2)C(=O)N1` (stereo partly shown) [Example A105, N-[3-[1-[5-[3-[2,6-Difluoro-3-(pyrrolidin-1-ylsulfonylamino)benzoyl]-1H-pyrrolo[2,3-b]pyridin-5-yl]pyridin-2-yl]piperidin-4-yl]oxycyclobutyl]-2-[4-[(2,6-dioxopiperidin-3-yl)amino]phenyl]acetamide], half-maximal degradation (DC50) was put at 24 nM and the Emax is 30%.

Turning to `CCN(C)S(=O)(=O)Nc1ccc(F)c(C(=O)c2c[nH]c3ncc(-c4cnc(N5CC6(CC(CC(=O)N7CCC(c8ccc(NC9CCC(=O)NC9=O)cc8)CC7)C6)C5)nc4)cc23)c1F` (stereo not shown) [Example 133, 5-[2-[6-[2-[4-[4-[(2,6-dioxo-3-piperidyl)amino]phenyl]-1-piperidyl]-2-oxo-ethyl]-2-azaspiro[3.3]heptan-2-yl]pyrimidin-5-yl]-3-[3-[[ethyl(methyl)sulfamoyl]amino]-2,6-difluoro-benzoyl]-1H-pyrrolo[2,3-b]pyridine], the half-maximal degradation concentration (DC50) came out at 14.7 nM and the Emax turned out to be 11.4%.

As to `CCN(C)S(=O)(=O)Nc1ccc(F)c(C(=O)c2c[nH]c3ncc(-c4cnc(N5CCN(C(=O)CN6CCC(c7ccc(NC8CCC(=O)NC8=O)cn7)CC6)CC5)nc4)cc23)c1F` (stereo not shown) [Example A69, 5-[2-[4-[2-[4-[5-[(2,6-Dioxopiperidin-3-yl)amino]pyridin-2-yl]piperidin-1-yl]acetyl]piperazin-1-yl]pyrimidin-5-yl]-3-[3-[[ethyl(methyl)sulfamoyl]amino]-2,6-difluorobenzoyl]-1H-pyrrolo[2,3-b]pyridine], it took 7 nM to reach half-maximal degradation (DC50) and the “HiBit 24 h Emax” value is reported as 12%.

On to `CCN(C)S(=O)(=O)Nc1ccc(F)c(C(=O)c2c[nH]c3ncc(-c4cnc(N5CCC(C(=O)N6CCC(c7ccc(NC8CCC(=O)NC8=O)cc7)CC6)CC5)nc4)cc23)c1F` (stereo not shown) [Example 127, 5-[2-[4-[4-[4-[(2,6-dioxo-3-piperidyl)amino]phenyl]piperidine-1-carbonyl]-1-piperidyl]pyrimidin-5-yl]-3-[3-[[ethyl(methyl)sulfamoyl]amino]-2,6-difluoro-benzoyl]-1H-pyrrolo[2,3-b]pyridine], for which the DC50 amounted to 13.2 nM and the Emax is 7.62%.

Consider `CCN(C)S(=O)(=O)Nc1ccc(F)c(C(=O)c2c[nH]c3ncc(C#Cc4ccc(C(=O)N5CCC(N6CCC(c7ccc(NC8CCC(=O)NC8=O)cc7)CC6)CC5)cc4)cc23)c1F` (stereo not shown) [Example A83, 5-[2-[4-[4-[4-[4-[(2,6-Dioxopiperidin-3-yl)amino]phenyl]piperidin-1-yl]piperidine-1-carbonyl]phenyl]ethynyl]-3-[3-[[ethyl(methyl)sulfamoyl]amino]-2,6-difluorobenzoyl]-1H-pyrrolo[2,3-b]pyridine], for which half-maximal degradation (DC50) was put at 6.97 nM and the Emax was determined as 8.89%.

As to `CCN(C)S(=O)(=O)Nc1ccc(F)c(C(=O)c2c[nH]c3ncc(-c4cnc(N5CCN(C(=O)CN6CCC(c7ccc(NC8CCC(=O)NC8=O)cn7)CC6)CC5)nc4)cc23)c1F` (stereo not shown) [Example 21, 5-[2-[4-[2-[4-[5-[(2,6-dioxo-3-piperidyl)amino]-2-pyridyl]-1-piperidyl]acetyl]piperazin-1-yl]pyrimidin-5-yl]-3-[3-[[ethyl(methyl)sulfamoyl]amino]-2,6-difluoro-benzoyl]-1H-pyrrolo[2,3-b]pyridine], the DC50 turned out to be 7.1 nM and the Emax came to 11.9%.

Take `CCN(C)S(=O)(=O)Nc1ccc(F)c(C(=O)c2c[nH]c3ncc(-c4cnc(N5CCN(C(=O)CN6CCC(Nc7ccc8c(C9CCC(=O)NC9=O)nn(C)c8c7)CC6)CC5)nc4)cc23)c1F` (stereo not shown) [Example 28, 3-(2,6-dioxo-3-piperidyl)-6-[[1-[2-[4-[5-[3-[3-[[ethyl(methyl)sulfamoyl]amino]-2,6-difluoro-benzoyl]-1H-pyrrolo[2,3-b]pyridin-5-yl]pyrimidin-2-yl]piperazin-1-yl]-2-oxo-ethyl]-4-piperidyl]amino]-1-methyl-indazole]: it took 5.81 nM to reach half-maximal degradation (DC50) and the Emax amounted to 12%.

Turning to `CCN(C)S(=O)(=O)Nc1ccc(F)c(C(=O)c2c[nH]c3ncc(-c4ccc(OC5CCN(C(=O)CN6CCC(c7ccc(OC8CCC(=O)NC8=O)cc7)CC6)CC5)cc4)cc23)c1F` (stereo not shown) [Example A30, 5-[4-[1-[2-[4-[4-(2,6-Dioxopiperidin-3-yl)oxyphenyl]piperidin-1-yl]acetyl]piperidin-4-yl]oxyphenyl]-3-[3-[[ethyl(methyl)sulfamoyl]amino]-2,6-difluorobenzoyl]-1H-pyrrolo[2,3-b]pyridine], it took 53 nM to reach half-maximal degradation (DC50) and the Emax amounted to 13%.

As to `CCN(C)S(=O)(=O)Nc1ccc(F)c(C(=O)c2c[nH]c3ncc(-c4ccc(N5CCN(C(=O)CN6CCC(c7ccc(NC8CCC(=O)NC8=O)cc7)CC6)CC5)cc4)cc23)c1F` (stereo not shown) [Example 84, 5-[4-[4-[2-[4-[4-[(2,6-dioxo-3-piperidyl)amino]phenyl]-1-piperidyl]acetyl]piperazin-1-yl]phenyl]-3-[3-[[ethyl(methyl)sulfamoyl]amino]-2,6-difluoro-benzoyl]-1H-pyrrolo[2,3-b]pyridine], the 50% degradation concentration (DC50) stood at 3.14 nM and the “HiBit 24 h Emax” value amounted to 9.62%.

Regarding `CCN(C)S(=O)(=O)Nc1ccc(F)c(C(=O)c2c[nH]c3ncc(-c4ccc(N5CCC(NCC(=O)N6CCC(c7ccc(OC8CCC(=O)NC8=O)cn7)CC6)CC5)cc4)cc23)c1F` (stereo not shown) [Example A97, 5-[4-[4-[[2-[4-[5-(2,6-Dioxopiperidin-3-yl)oxypyridin-2-yl]piperidin-1-yl]-2-oxoethyl]amino]piperidin-1-yl]phenyl]-3-[3-[[ethyl(methyl)sulfamoyl]amino]-2,6-difluorobenzoyl]-1H-pyrrolo[2,3-b]pyridine;hydrochloride], it took 84 nM to reach half-maximal degradation (DC50) and the Emax is 12%.

As to `CCN(C)S(=O)(=O)Nc1ccc(F)c(C(=O)c2c[nH]c3ncc(-c4ccc(N5CCN(C(=O)CN6CCC(Nc7ccc8c(C9CCC(=O)NC9=O)nn(C)c8c7)CC6)CC5)nc4)cc23)c1F` (stereo not shown) [Example 75, 3-(2,6-dioxo-3-piperidyl)-6-[[1-[2-[4-[5-[3-[3-[[ethyl(methyl)sulfamoyl]amino]-2,6-difluoro-benzoyl]-1H-pyrrolo[2,3-b]pyridin-5-yl]-2-pyridyl]piperazin-1-yl]-2-oxo-ethyl]-4-piperidyl]amino]-1-methyl-indazole], half-maximal degradation (DC50) was put at 6.26 nM and the Emax was determined as 11.6%.

Consider `CCN(C)S(=O)(=O)Nc1ccc(F)c(C(=O)c2c[nH]c3ncc(-c4ccc(CN5CCN(C(=O)CN6CCN(c7ccc(NC8CCC(=O)NC8=O)cc7)CC6)CC5)cc4)cc23)c1F` (stereo not shown) [Example 95, 5-[4-[[4-[2-[4-[4-[(2,6-dioxo-3-piperidyl)amino]phenyl]piperazin-1-yl]acetyl]piperazin-1-yl]methyl]phenyl]-3-[3-[[ethyl(methyl)sulfamoyl]amino]-2,6-difluoro-benzoyl]-1H-pyrrolo[2,3-b]pyridine], for which the DC50 was found to be 30.4 nM and the Emax turned out to be 12.8%.

Consider `CCN(C)S(=O)(=O)Nc1ccc(F)c(C(=O)c2c[nH]c3ncc(-c4ccc(N5CCN(C(=O)CC6(O)CCN(c7ccc(NC8CCC(=O)NC8=O)cc7F)CC6)CC5)c(C)c4)cc23)c1F` (stereo not shown) [Example 192, 5-[4-[4-[2-[1-[4-[(2,6-dioxo-3-piperidyl)amino]-2-fluoro-phenyl]-4-hydroxy-4-piperidyl]acetyl]piperazin-1-yl]-3-methyl-phenyl]-3-[3-[[ethyl(methyl)sulfamoyl]amino]-2,6-difluoro-benzoyl]-1H-pyrrolo[2,3-b]pyridine], for which the DC50 came to 13.9 nM and the maximal effect (Emax) was determined as 8.18%.

For the molecule `CCN(C)S(=O)(=O)Nc1ccc(F)c(C(=O)c2c[nH]c3ncc(-c4cnc(N5CCN(C(=O)CC6(O)CCN(c7ccc(NC8CCC(=O)NC8=O)cn7)CC6)CC5)nc4)cc23)c1F` (stereo not shown) [Example 57, 5-[2-[4-[2-[1-[5-[(2,6-dioxo-3-piperidyl)amino]-2-pyridyl]-4-hydroxy-4-piperidyl]acetyl]piperazin-1-yl]pyrimidin-5-yl]-3-[3-[[ethyl(methyl)sulfamoyl]amino]-2,6-difluoro-benzoyl]-1H-pyrrolo[2,3-b]pyridine], it took 10.1 nM to reach half-maximal degradation (DC50) and the Emax was 18.2%.

As for `CCN(C)S(=O)(=O)Nc1ccc(F)c(C(=O)c2c[nH]c3ncc(-c4cnc(N5CCN(C(=O)CN6CCC(c7ccc(NC8CCC(=O)NC8=O)cc7)CC6)CC5)nc4)cc23)c1C` (stereo not shown) [Example 123, 5-[2-[4-[2-[4-[4-[(2,6-dioxo-3-piperidyl)amino]phenyl]-1-piperidyl]acetyl]piperazin-1-yl]pyrimidin-5-yl]-3-[3-[[ethyl(methyl)sulfamoyl]amino]-6-fluoro-2-methyl-benzoyl]-1H-pyrrolo[2,3-b]pyridine], the DC50 worked out at 46.4 nM and the Emax turned out to be 11.7%.

In the case of `CCN(C)S(=O)(=O)Nc1ccc(F)c(C(=O)c2c[nH]c3ncc(-c4cnc(N5CCN(C(=O)CN6CCC(N7CCN(C8CCC(=O)NC8=O)C(=O)C7)CC6)CC5)nc4)cc23)c1F` (stereo not shown) [Example 37, 5-[2-[4-[2-[4-[4-(2,6-dioxo-3-piperidyl)-3-oxo-piperazin-1-yl]-1-piperidyl]acetyl]piperazin-1-yl]pyrimidin-5-yl]-3-[3-[[ethyl(methyl)sulfamoyl]amino]-2,6-difluoro-benzoyl]-1H-pyrrolo[2,3-b]pyridine], it took 17.2 nM to reach half-maximal degradation (DC50) and the Emax was determined as 9.14%.

Take `CCN(C)S(=O)(=O)Nc1ccc(F)c(C(=O)c2c[nH]c3ncc(-c4ccc(N5CCN(C(=O)CCCN6CCC(c7ccc(OC8CCC(=O)NC8=O)cc7)CC6)CC5)cc4)cc23)c1F` (stereo not shown) [Example A15, 5-[4-[4-[4-[4-[4-(2,6-Dioxopiperidin-3-yl)oxyphenyl]piperidin-1-yl]butanoyl]piperazin-1-yl]phenyl]-3-[3-[[ethyl(methyl)sulfamoyl]amino]-2,6-difluorobenzoyl]-1H-pyrrolo[2,3-b]pyridine]: half-maximal degradation (DC50) was put at 24 nM and the Emax came to 14%.

As a reminder, the DC50 is the concentration giving 50% degradation. A low value points to degradation at low concentration. For orientation: Emax means the greatest response seen or fitted, relative to the assay's reference.
